Holding throughout (test): isoTOP-ABPP mapping of AEA-DA-modified peptides in Neuro2a cells
Holding throughout (assay type): cell-based

The target in assay [1] is T1, AEA-DA-modified peptides in Neuro2a cells (Mus musculus, UniProt Q80UU9).
T1 construct: endogenous in cells; host or cells: Neuro2a
To be noted: probe 100 μM, 12 replicates.

Assay [2] concerns the target T2, AEA-DA-modified peptides in Neuro2a cells (Mus musculus, UniProt P47802).
T2 construct: endogenous in cells; host or cells: Neuro2a
Conditions: AEA-DA-modified peptide MTX1 P47802 89-104, SEQ ID NO 63; probe 100 μM, 12 replicates.

The target of assay [3] is T3, AEA-DA-modified peptides in Neuro2a cells (Mus musculus, UniProt Q9JKF7).
T3 construct: endogenous in cells; host or cells: Neuro2a
Conditions: AEA-DA-modified peptide MRPL39 Q9JKF7 154-166, SEQ ID NO 61; probe 100 μM, 12 replicates.

The target in assay [4] is T4, AEA-DA-modified peptides in Neuro2a cells (Mus musculus, UniProt P61161).
T4 construct: endogenous in cells; host or cells: Neuro2a
Conditions: AEA-DA-modified peptide ACTR2 P61161 259-295, SEQ ID NO 5; probe 100 μM, 12 replicates.

Assay [5] has as its target T5, AEA-DA-modified peptides in Neuro2a cells (Mus musculus, UniProt O55234).
T5 construct: endogenous in cells; host or cells: Neuro2a
Conditions: AEA-DA-modified peptide PSMB5 O55234 141-151, SEQ ID NO 91; probe 100 μM, 12 replicates.

Assay [6] addresses T6, AEA-DA-modified peptides in Neuro2a cells (Mus musculus, UniProt P35505).
T6 construct: endogenous in cells; host or cells: Neuro2a
Conditions: AEA-DA-modified peptide FAH P35505 238-254, SEQ ID NO 40; probe 100 μM, 12 replicates.

Assay [7] addresses T7, AEA-DA-modified peptides in Neuro2a cells (Mus musculus, UniProt Q8BKE6).
T7 construct: endogenous in cells; host or cells: Neuro2a
Conditions: AEA-DA-modified peptide CYP20A1 Q8BKE6 397-414, SEQ ID NO 29; probe 100 μM, 12 replicates.

The target of assay [8] is T8, AEA-DA-modified peptides in Neuro2a cells (Mus musculus, UniProt P67778).
T8 construct: endogenous in cells; host or cells: Neuro2a
T8 sequence (P67778 whole entry): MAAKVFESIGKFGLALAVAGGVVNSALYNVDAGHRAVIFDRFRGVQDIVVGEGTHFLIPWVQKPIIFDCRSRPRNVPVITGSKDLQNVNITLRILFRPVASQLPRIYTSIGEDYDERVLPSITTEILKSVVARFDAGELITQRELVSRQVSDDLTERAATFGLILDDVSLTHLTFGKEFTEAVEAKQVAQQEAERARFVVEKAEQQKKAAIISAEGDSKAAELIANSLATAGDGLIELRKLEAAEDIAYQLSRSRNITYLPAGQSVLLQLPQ
Conditions: AEA-DA-modified peptide PHB P67778 5-12, SEQ ID NO 85; probe 100 μM, 12 replicates.

The target of assay [9] is T9, AEA-DA-modified peptides in Neuro2a cells (Mus musculus, UniProt O35459).
T9 construct: endogenous in cells; host or cells: Neuro2a
T9 sequence (O35459 34-327): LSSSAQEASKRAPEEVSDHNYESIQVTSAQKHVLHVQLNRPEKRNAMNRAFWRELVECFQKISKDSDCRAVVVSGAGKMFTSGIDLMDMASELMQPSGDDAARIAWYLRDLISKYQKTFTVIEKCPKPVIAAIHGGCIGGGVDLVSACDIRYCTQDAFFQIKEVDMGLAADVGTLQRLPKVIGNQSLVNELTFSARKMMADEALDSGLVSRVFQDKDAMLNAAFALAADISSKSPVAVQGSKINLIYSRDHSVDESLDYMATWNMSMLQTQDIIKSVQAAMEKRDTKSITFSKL
Conditions: probe 100 μM, 12 replicates.

For assay [10], the target named is T10, AEA-DA-modified peptides in Neuro2a cells (Mus musculus, UniProt P19157).
T10 construct: endogenous in cells; host or cells: Neuro2a
T10 sequence (P19157 whole entry): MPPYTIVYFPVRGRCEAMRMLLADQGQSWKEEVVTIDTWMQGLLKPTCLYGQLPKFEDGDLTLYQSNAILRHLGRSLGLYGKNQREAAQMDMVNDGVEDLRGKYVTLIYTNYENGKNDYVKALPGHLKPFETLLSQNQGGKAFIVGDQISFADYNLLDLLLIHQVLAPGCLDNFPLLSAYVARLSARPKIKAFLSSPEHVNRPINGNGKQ
Conditions: AEA-DA-modified peptide GSTP1 P19157 104-117, SEQ ID NO 46; probe 100 μM, 12 replicates.

The target in assay [11] is T11, AEA-DA-modified peptides in Neuro2a cells (Mus musculus, UniProt Q9CPQ8).
T11 construct: endogenous in cells; host or cells: Neuro2a
T11 sequence (Q9CPQ8 whole entry): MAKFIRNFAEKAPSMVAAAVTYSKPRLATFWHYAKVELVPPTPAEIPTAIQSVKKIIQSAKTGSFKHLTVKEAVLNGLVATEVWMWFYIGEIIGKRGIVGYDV
Conditions: AEA-DA-modified peptide ATP5L Q9CPQ8 36-55, SEQ ID NO 19; probe 100 μM, 12 replicates.

T1 sequence (Q80UU9 whole entry): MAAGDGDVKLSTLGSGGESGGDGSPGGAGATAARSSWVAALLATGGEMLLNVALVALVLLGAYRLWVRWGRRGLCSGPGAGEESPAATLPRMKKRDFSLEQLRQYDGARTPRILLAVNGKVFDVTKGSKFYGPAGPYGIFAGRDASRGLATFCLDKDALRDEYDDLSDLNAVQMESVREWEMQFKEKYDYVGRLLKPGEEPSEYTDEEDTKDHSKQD
T2 sequence (P47802 whole entry): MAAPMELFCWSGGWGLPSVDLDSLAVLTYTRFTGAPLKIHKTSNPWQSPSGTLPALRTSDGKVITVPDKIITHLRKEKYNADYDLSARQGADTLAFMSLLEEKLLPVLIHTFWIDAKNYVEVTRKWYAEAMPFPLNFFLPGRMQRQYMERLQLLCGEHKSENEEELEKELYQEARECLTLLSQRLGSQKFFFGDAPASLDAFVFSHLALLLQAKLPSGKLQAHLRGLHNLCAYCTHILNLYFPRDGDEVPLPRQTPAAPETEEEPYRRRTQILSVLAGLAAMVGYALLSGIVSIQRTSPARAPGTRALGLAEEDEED
T7 sequence (Q8BKE6 whole entry): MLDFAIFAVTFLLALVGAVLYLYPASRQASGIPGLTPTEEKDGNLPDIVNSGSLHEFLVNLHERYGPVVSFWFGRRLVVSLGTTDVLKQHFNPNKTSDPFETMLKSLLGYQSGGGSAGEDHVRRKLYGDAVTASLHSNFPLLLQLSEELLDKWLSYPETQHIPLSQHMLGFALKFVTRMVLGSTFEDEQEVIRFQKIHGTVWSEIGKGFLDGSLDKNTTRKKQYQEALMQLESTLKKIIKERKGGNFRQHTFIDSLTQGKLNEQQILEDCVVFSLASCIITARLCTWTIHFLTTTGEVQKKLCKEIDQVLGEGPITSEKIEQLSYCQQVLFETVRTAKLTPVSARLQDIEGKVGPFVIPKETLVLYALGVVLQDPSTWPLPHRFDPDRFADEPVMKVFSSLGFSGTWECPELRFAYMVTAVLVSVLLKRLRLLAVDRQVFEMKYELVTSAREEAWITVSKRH
T5 sequence (O55234 60-264): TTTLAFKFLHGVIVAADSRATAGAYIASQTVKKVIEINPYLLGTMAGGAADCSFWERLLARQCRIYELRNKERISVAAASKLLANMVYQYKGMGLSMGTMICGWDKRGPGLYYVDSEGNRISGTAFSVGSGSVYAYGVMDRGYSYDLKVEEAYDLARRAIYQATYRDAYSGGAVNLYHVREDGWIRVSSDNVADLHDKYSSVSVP
T6 sequence (P35505 whole entry): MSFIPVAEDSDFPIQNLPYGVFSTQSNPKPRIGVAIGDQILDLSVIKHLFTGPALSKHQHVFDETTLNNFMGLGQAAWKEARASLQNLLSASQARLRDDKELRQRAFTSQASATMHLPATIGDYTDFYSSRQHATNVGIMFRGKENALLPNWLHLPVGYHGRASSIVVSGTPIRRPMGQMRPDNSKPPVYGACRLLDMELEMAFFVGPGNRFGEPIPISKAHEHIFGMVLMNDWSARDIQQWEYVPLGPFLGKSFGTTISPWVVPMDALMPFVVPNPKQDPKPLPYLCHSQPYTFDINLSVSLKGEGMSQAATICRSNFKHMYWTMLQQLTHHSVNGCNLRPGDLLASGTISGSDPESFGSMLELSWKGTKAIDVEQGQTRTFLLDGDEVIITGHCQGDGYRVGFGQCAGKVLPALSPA

With `C#CCCCC1(CC/C=C\C/C=C\C/C=C\CCCC(=O)NCCO)N=N1` [AEA-DA, (5Z,8Z,11Z)-N-(2-hydroxyethyl)-14-(3-(pent-4-yn-1-yl)-3H-diazirin-3-yl)tetradeca-5,8,11-trienamide], the Times observed was found to be 2 in assay [1] (AEA-DA-modified peptide PGRMC2 Q80UU9 74-92, SEQ ID NO 84); 9 in assay [1] (AEA-DA-modified peptide PGRMC2 Q80UU9 130-144, SEQ ID NO 83); 2 in [2]; 4 in assay [3]; 2 in [4]; 11 in assay [5]. Moreover, the Times observed amounted to 8 in [6]; 8 in assay [7]; 2 in assay [8]; 4 in [9] (AEA-DA-modified peptide ECH1 O35459 185-211, SEQ ID NO 32); 8 in [9] (AEA-DA-modified peptide ECH1 O35459 196-211, SEQ ID NO 33); 4 in [10]. In [11], this compound showed a Times observed of 3.

(Values after patent US10168342B2, “Lipid probes and uses thereof” (THE SCRIPPS RESEARCH INSTITUTE, priority 2015, dated 2019).)
